The subject of experiment [1] is Radio-sensitive colorectal cancer tissue of patient (case C87). As to the kind of experiment: In vivo/ex vivo imaging and phage elution of Cy5.5-labeled peptide-expressing phages in mouse model transplanted with patient's colorectal cancer tissue (Example 4). The arrangement: species or system nude mouse. To be noted: for in vivo ROI: Cy5.5 fluorescence total flux standardized to Cy5.5 dye control; for pfu/mg (concentration of eluted phages relative to weight of cancer tissue) / ex vivo ROI: extracted cancer tissue; for ex vivo ROI: standardized to Cy5.5 dye control. The source says: (§1) Then, the distributed cancer tissue was kept in a specific preservative solution and transferred directly to an animal chamber, so as to maintain a state in which the cancer tissue was not separated from a patient yet. After an NOD/SCID mouse was anesthetized via intraperitoneal injection of anesthetics, the cancer tissue was cut into pieces each having a size of 3×3 mm. Next, each of both flanks of the NOD/SCID mouse was transplanted with a piece of the cut cancer tissues, and sutured. The NOD/SCID mouse was then recovered on a heating pad for about 2 hours (conditions of the preservative solution: HBSS containing 100 IU/ml penicillin, 100 μg/ml streptomycin, 100 μg/ml gentamicin, 2.5 μg/ml amphotericin B, and 5% fetal bovine serum). After completion of the transplantation, the NOD/SCID mouse was raised until tumors were formed. Meanwhile, the formation and growth of tumors were checked at least once a week. When the transplanted cancer tissues grew to a size of at least 500 mm^3, an extraction process was performed thereon. Then, the extracted cancer tissues were each cut into pieces each having a size of 3×3 mm for subculturing. A nude mouse was anesthetized via intraperitoneal injection of anesthetics, and a piece of the cut cancer tissues was transplanted subcutaneously on the right thigh of the nude mouse. A transplantation site was changed from the flank to the thigh so that irradiation can be locally done without affecting other organs during irradiation. That is, a finally used mouse model transplanted with a patient's colorectal cancer tissue in the present invention was a mouse model established in a way that a cancer tissue that underwent subculturing four times was re-transplanted to form a cancer tissue. When the size of the cancer tissue was increased to about 250 mm^3, only the cancer tissue was irradiated with 2 grays (Gy) of radiation. After having recovery time for no longer than 24 hours, in vivo peptide screening was performed. Here, a non-irradiated population, which is a control group, was also subjected to screening in a separate manner.
(§2) In detail, regarding in vivo imaging verification, the peptide-expressing phage was amplified, and a process of linking a fluorescent probe (Cy5.5) was performed. In particular, 1 μg/μl of N-hydroxysuccinimide esters of Cy5.5 (Amersham) was added to 1 mL of bicarbonate buffer (pH 8.3) having the phage concentration of 10^12 plaque forming units (pfu), and then, in a condition where a dark environment was maintained, a phage-surface protein was linked to the Cy5.5 fluorescent probe at room temperature for 3 hours. That is, amine groups of the phage-surface protein were chemically linked to N-hydroxysuccinimide esters of the Cy5.5 fluorescent probe via a covalent bond. The peptide-expressing phages to which the Cy5.5 fluorescent probe was linked were each obtained by precipitation with 170 μl of 20% (w/v) PEG 8000/2.5 M NaCl solution and purification. To determine a proportion of the Cy5.5 fluorescent probe linked to each of the finally obtained phage samples, an IVIS spectrum imaging system (Xenogen) was used for measurement, and region of interest (ROI) values were determined using the software program of a corresponding device.
(§3) In addition, on the last day of the in vivo imaging, the cancer tissues were each extracted, to thereby obtain ex vivo images thereof.

The subject of experiment [2] is Radio-resistant colorectal cancer tissue of patient (case C65). Described as above. More on the design: species or system nude mouse. The following applies: for in vivo ROI: Cy5.5 fluorescence total flux standardized to Cy5.5 dye control; for pfu/mg (concentration of eluted phages relative to weight of cancer tissue) / ex vivo ROI: extracted cancer tissue; for ex vivo ROI: standardized to Cy5.5 dye control.
Description: as §1, §2, §3

Setting [3] is: case C87, irradiated population (2 Gy).
The mark [4] stands for this setting: case C87, non-irradiated population.
Setting [5] is: case C65, irradiated population (2 Gy).
[6] abbreviates: case C65, non-irradiated population.

For the substance TNPYPLD [F10], in experiment [1] (setting [3]), the “in vivo ROI” value came to 1.91, the “pfu/mg (concentration of eluted phages relative to weight of cancer tissue)” value was 7.86 pfu/mg and the “ex vivo ROI” value is reported as 1.74.
As to LTGSVNK [E10], in experiment [1] (setting [4]), the “in vivo ROI” value is listed as 1.19, the “pfu/mg (concentration of eluted phages relative to weight of cancer tissue)” value was 2.25 pfu/mg and the “ex vivo ROI” value is 1.00.
For AIKNTKS [E8] the same measures were 0.90, 15.00 pfu/mg and 0.49.
TAFSLGK [E6]: in experiment [1] (setting [4]), the “in vivo ROI” value turned out to be 0.78, the “pfu/mg (concentration of eluted phages relative to weight of cancer tissue)” value amounted to 4.24 pfu/mg and the “ex vivo ROI” value came out at 0.77.
With TVRTSAV [E9], in experiment [1] (setting [4]), the “in vivo ROI” value amounted to 1.27, the “pfu/mg (concentration of eluted phages relative to weight of cancer tissue)” value came to 86.40 pfu/mg and the “ex vivo ROI” value amounted to 1.20.
In the case of KISLPHN [E13], in experiment [1] (setting [4]), the “in vivo ROI” value worked out at 1.50, the “pfu/mg (concentration of eluted phages relative to weight of cancer tissue)” value was 1.22 pfu/mg and the “ex vivo ROI” value is reported as 0.93.
As for LKLGEKW [B7], in experiment [2] (setting [5]), the “in vivo ROI” value stood at 1.72, the “pfu/mg (concentration of eluted phages relative to weight of cancer tissue)” value worked out at 3.45 pfu/mg and the “ex vivo ROI” value was 0.62. Moreover, in experiment [1] (setting [3]), the “in vivo ROI” value is listed as 1.00, the “pfu/mg (concentration of eluted phages relative to weight of cancer tissue)” value amounted to 1.90 pfu/mg and the “ex vivo ROI” value amounted to 2.92.
As for NGNSNTL [F9], in experiment [1] (setting [3]), the “in vivo ROI” value is 1.77, the “pfu/mg (concentration of eluted phages relative to weight of cancer tissue)” value came out at 95.24 pfu/mg and the “ex vivo ROI” value is given as 4.45.
For VPSQKSK [B4], in experiment [2] (setting [5]), the “in vivo ROI” value came out at 2.12, the “pfu/mg (concentration of eluted phages relative to weight of cancer tissue)” value turned out to be 20.62 pfu/mg and the “ex vivo ROI” value worked out at 1.36.
KLTQMM [F1]: in experiment [1] (setting [3]), the “in vivo ROI” value turned out to be 1.63, the “pfu/mg (concentration of eluted phages relative to weight of cancer tissue)” value is on record as 6.73 pfu/mg and the “ex vivo ROI” value worked out at 2.39.
Turning to MARYMSA [A10], in experiment [2] (setting [6]), the “in vivo ROI” value is 2.26, the “pfu/mg (concentration of eluted phages relative to weight of cancer tissue)” value is 183.16 pfu/mg and the “ex vivo ROI” value amounted to 1.58.
For “SHMEYPR [A1, 7-amino-acid loop peptide expressed on M13 phage, tested as Cy5.5-labeled phage]”, in experiment [2] (setting [5]), the “in vivo ROI” value is reported as 2.27, the “pfu/mg (concentration of eluted phages relative to weight of cancer tissue)” value is 230 pfu/mg and the “ex vivo ROI” value turned out to be 1.89. Moreover, in experiment [2] (setting [6]), the “in vivo ROI” value was 1.77, the “pfu/mg (concentration of eluted phages relative to weight of cancer tissue)” value turned out to be 136.36 pfu/mg and the “ex vivo ROI” value is recorded as 1.27. Also, in experiment [1] (setting [4]), the “in vivo ROI” value is 1.68, the “pfu/mg (concentration of eluted phages relative to weight of cancer tissue)” value came to 74.12 pfu/mg and the “ex vivo ROI” value was determined as 1.72.
For VQMPAHS [E4], in experiment [1] (setting [4]), the “in vivo ROI” value stood at 0.84, the “pfu/mg (concentration of eluted phages relative to weight of cancer tissue)” value amounted to 5.00 pfu/mg and the “ex vivo ROI” value is recorded as 0.94.
Take GQSGARF [F8]: in experiment [1] (setting [3]), the “in vivo ROI” value was 1.18, the “pfu/mg (concentration of eluted phages relative to weight of cancer tissue)” value is reported as 6.10 pfu/mg and the “ex vivo ROI” value was 1.92.
As for YVSKNNS [E17], in experiment [1] (setting [4]), the “in vivo ROI” value was 1.66, the “pfu/mg (concentration of eluted phages relative to weight of cancer tissue)” value came to 204.00 pfu/mg and the “ex vivo ROI” value is given as 1.29.
With DLLHRGA [A9], in experiment [2] (setting [6]), the “in vivo ROI” value was 2.35, the “pfu/mg (concentration of eluted phages relative to weight of cancer tissue)” value is 54.17 pfu/mg and the “ex vivo ROI” value came to 0.56.
With DVSGNW [A8], in experiment [2] (setting [6]), the “in vivo ROI” value is given as 2.99, the “pfu/mg (concentration of eluted phages relative to weight of cancer tissue)” value was 8.56 pfu/mg and the “ex vivo ROI” value is given as 1.57.
As to RSTGSSC [E16], in experiment [1] (setting [4]), the “in vivo ROI” value came out at 0.50, the “pfu/mg (concentration of eluted phages relative to weight of cancer tissue)” value is reported as 2.14 pfu/mg and the “ex vivo ROI” value amounted to 0.24.
In the case of AFKSPSG [E14], in experiment [1] (setting [4]), the “in vivo ROI” value worked out at 0.70, the “pfu/mg (concentration of eluted phages relative to weight of cancer tissue)” value stood at 2.89 pfu/mg and the “ex vivo ROI” value is 0.55.
On to ASKSTHD [A7], for which, in experiment [2] (setting [6]), the “in vivo ROI” value was determined as 1.80, the “pfu/mg (concentration of eluted phages relative to weight of cancer tissue)” value is recorded as 27.14 pfu/mg and the “ex vivo ROI” value turned out to be 1.08.
With SFFPFST [F3], in experiment [1] (setting [3]), the “in vivo ROI” value was 1.07, the “pfu/mg (concentration of eluted phages relative to weight of cancer tissue)” value is listed as 22.31 pfu/mg and the “ex vivo ROI” value was determined as 2.64.
On to DETSGQI [E12], for which, in experiment [1] (setting [4]), the “in vivo ROI” value came out at 1.24, the “pfu/mg (concentration of eluted phages relative to weight of cancer tissue)” value was 5.56 pfu/mg and the “ex vivo ROI” value was determined as 1.07.
NTWMKSK [A11]: in experiment [2] (setting [6]), the “in vivo ROI” value amounted to 1.93, the “pfu/mg (concentration of eluted phages relative to weight of cancer tissue)” value was 6.71 pfu/mg and the “ex vivo ROI” value amounted to 0.95.
Consider QQTKNYY [E7], for which, in experiment [1] (setting [4]), the “in vivo ROI” value turned out to be 2.02, the “pfu/mg (concentration of eluted phages relative to weight of cancer tissue)” value was found to be 58.32 pfu/mg and the “ex vivo ROI” value was 1.38.
Turning to QLWQKEQ [F5], in experiment [1] (setting [3]), the “in vivo ROI” value came to 1.63, the “pfu/mg (concentration of eluted phages relative to weight of cancer tissue)” value was 144.55 pfu/mg and the “ex vivo ROI” value came to 3.72.
SWGDRIL [A5]: in experiment [2] (setting [6]), the “in vivo ROI” value was 2.16, the “pfu/mg (concentration of eluted phages relative to weight of cancer tissue)” value is 51.38 pfu/mg and the “ex vivo ROI” value came out at 1.52.
Consider STMNGKV [B1], for which, in experiment [2] (setting [5]), the “in vivo ROI” value is on record as 1.52, the “pfu/mg (concentration of eluted phages relative to weight of cancer tissue)” value is given as 16.67 pfu/mg and the “ex vivo ROI” value came out at 1.48.
Turning to LGSVGRD [F7], in experiment [1] (setting [3]), the “in vivo ROI” value came to 1.61, the “pfu/mg (concentration of eluted phages relative to weight of cancer tissue)” value came to 141.04 pfu/mg and the “ex vivo ROI” value amounted to 3.97.
As to TVRSSAE [B3], in experiment [2] (setting [5]), the “in vivo ROI” value is listed as 2.38, the “pfu/mg (concentration of eluted phages relative to weight of cancer tissue)” value was 195.40 pfu/mg and the “ex vivo ROI” value was 1.63.
For the substance GGNSNQR [E5], in experiment [1] (setting [4]), the “in vivo ROI” value was 0.92, the “pfu/mg (concentration of eluted phages relative to weight of cancer tissue)” value is given as 15.96 pfu/mg and the “ex vivo ROI” value worked out at 0.76.
Regarding LQPKASQ [A6], in experiment [2] (setting [6]), the “in vivo ROI” value is recorded as 2.75, the “pfu/mg (concentration of eluted phages relative to weight of cancer tissue)” value came out at 15.4 pfu/mg and the “ex vivo ROI” value is listed as 1.47.
The like results for STEHTRS [A4] were, in that order, 3.20, 264.86 pfu/mg and 1.83.
MNFIQKN [E11]: in experiment [1] (setting [4]), the “in vivo ROI” value was determined as 1.05, the “pfu/mg (concentration of eluted phages relative to weight of cancer tissue)” value amounted to 4.43 pfu/mg and the “ex vivo ROI” value was found to be 0.34.
Regarding SNVYDHN [A3], in experiment [2] (setting [6]), the “in vivo ROI” value came out at 1.62, the “pfu/mg (concentration of eluted phages relative to weight of cancer tissue)” value came to 34.8 pfu/mg and the “ex vivo ROI” value is given as 0.67.
For LKTSGTY [E15], in experiment [1] (setting [4]), the “in vivo ROI” value was 0.77, the “pfu/mg (concentration of eluted phages relative to weight of cancer tissue)” value worked out at 6.13 pfu/mg and the “ex vivo ROI” value came out at 0.47.
Consider DNSKLVE [F4], for which, in experiment [1] (setting [3]), the “in vivo ROI” value is recorded as 1.59, the “pfu/mg (concentration of eluted phages relative to weight of cancer tissue)” value was determined as 69.18 pfu/mg and the “ex vivo ROI” value worked out at 3.11.
On to HKTEHRS [E18], for which, in experiment [1] (setting [4]), the “in vivo ROI” value is recorded as 0.69, the “pfu/mg (concentration of eluted phages relative to weight of cancer tissue)” value is listed as 4.15 pfu/mg and the “ex vivo ROI” value is 0.21.

Values taken from patent US10393744B2, “Peptides for targeting colorectal cancer, and medical use thereof” (UNIVERSITY OF ULSAN FOUNDATION FOR INDUSTRY COOPERATION, priority 2014, dated 2019).
